Test results published in article PMC8296708, “The pan HDAC inhibitor Givinostat improves muscle function and histological parameters in two Duchenne muscular dystrophy murine models expressing different haplotypes of the LTBP4 gene” (Skeletal Muscle, 2021).

System: D2.B10 mice
Assay: Treadmill run to exhaustion test in D2.B10 mice
Assay type: in vivo, mouse (D2.B10-Dmd^mdx/J)
Conditions: for Effect on distance run, significance: Deflazacort, prednisone 1 mg/kg, lower doses of Givinostat
Description: For the efficacy studies, C57BL/10 J (Stock No: 000665) wild type (wt) and C57BL/10ScSn-Dmd^mdx/J (Stock No: 001801) 7–8-week-old male mice, DBA/2J wt (Stock No: 000671), and D2.B10-Dmd^mdx/J (Stock No: 013141) 6–7-week-old male mice were purchased from The Jackson Laboratories (Bar Harbor, Maine, USA). After 5 days of acclimatization in the animal facility, mice were randomized into different treatment groups based on their BW. C57BL/10J wt mice were assigned to the naive wt group (healthy mice that received no treatment, but were subjected to functional tests), whereas mdx mice were assigned to the following groups (9 mice/group; 4–5 mice/cage): naive mdx (mice that received no treatment, but were subjected to functional tests), vehicle (0.5% methylcellulose, p.o.), and Givinostat (0.1, 0.3, 1, 5, 10, 25, and 37.5 mg/kg, p.o.). DBA/2J mice were assigned to the naive wt group (healthy mice that received no treatment, but were subjected to functional tests), whereas D2.B10 mice were assigned to the following groups (12–13 mice/group; 4–5 mice/gage): vehicle (filtered tap water, p.o.), Givinostat (1, 5, 10, and 37.5 mg/kg, p.o.), prednisone 1 mg/kg, and Deflazacort 1 mg/kg (i.p.).
In the efficacy studies, Givinostat powder (ITF2357) was suspended in 0.5% methylcellulose (Sigma-Aldrich) and administered p.o. (by gavage) at the doses of 0.1, 0.3, 1, 5, 10, 25, and 37.5 mg/kg qdx5x15weeks (administration volume per mouse: 10 mL/kg) in mdx mice (see Additional Figure 1A). Vehicle-treated mdx mice received 0.5% methylcellulose suspension. Givinostat suspension was stored at + 4 °C, and it was freshly prepared every 7 days. Probably due to the impairment of their tongue and masticatory muscles, the oral gavage procedure turned out to be difficult to perform, and chronic treatment of D2.B10 mice by this route was considered to bear a high risk of damaging the esophagus. For this reason, Givinostat was administered in the drinking water. Givinostat was dissolved in filtered tap water and was administered in drinking water (throughout 24 h) for 105 days at the dose of 1, 5, 10, and 37.5 mg/kg/day, according to a daily estimate of water consumption of 4 ml/mouse/day. Water consumption was weekly monitored throughout the entire duration of the study weighing the bottle of each cage (maximum 4 mice per cage). Prednisone and Deflazacort powder (Sigma-Aldrich) was dissolved in 2% DMSO (Sigma-Aldrich) and diluted in sterile saline on injection days. Both drugs were administered weekly (for 15 weeks) by i.p. injection at the dose of 1 mg/kg in a volume of 10 mL/kg. Givinostat and steroid treatments started on days 7 and 9 of the experimental plan, respectively (see Additional Figure 1B). All mice were monitored daily and tolerability was evaluated on the basis of BW and clinical signs.
Run to exhaustion performance of mdx and D2.B10 mice was evaluated every 14 or 21 days, respectively, using a treadmill apparatus (Ugo Basile SRL, Italy). The exhaustion protocol consisted in an initially horizontal running at 5 m/min for 5 min after which the speed was increased 1 m/min every minute until exhaustion (the procedure was compliant with the standard operating procedures of TREAT–NMD Neuromuscular Network). […]
After taking baseline readings for behavioral assays (FNmax and distance run by the animals), mice were re-randomized based on these two parameters, also considering the previous randomization performed on their BW. […]

Structure (SMILES) | Effect on distance run, significance | Distance run (Givinostat top dose (37.5 mg/kg), day 105 (vehicle 296 ± 17 m)) [meters] | Time to exhaustion (highest dose, day 105)
C[C@]12C=CC(=O)C=C1CC[C@@H]1[C@@H]2C(=O)C[C@@]2(C)[C@H]1CC[C@]2(O)C(=O)CO [prednisone] | not statistically significant | – | –
CCN(CC)Cc1ccc2cc(COC(=O)Nc3ccc(C(=O)NO)cc3)ccc2c1 [Givinostat] | not statistically significant | 473 ± 22 | significantly prolonged the time to exhaustion
